Assay results as given in patent publication US20100081719A1 (priority 2006, published 2010).
Counter-ions that a name gives are not always drawn.

Tested on: patients who meet the 1990 ACR criteria for fibromyalgia syndrome
Test: Multicenter, double-blind, randomized, placebo-controlled monotherapy study of milnacipran for treatment of fibromyalgia (Example 2)
Assay type: in vivo, human
Conditions: 3-month treatment period (LOCF), intent-to-treat; for MFI total score, Change from baseline, Difference from Placebo / MFI total score, Change from baseline, LS Mean (SE): ANCOVA
Procedure: This was a multicenter, randomized, double-blind, placebo-controlled three-arm study designed which enrolled 1196 patients who meet the 1990 ACR criteria for fibromyalgia syndrome (history of widespread pain and pain in 11 of 18 tender point sites on digital palpation), as well as the more detailed admission criteria outlined in the protocol.
All randomized medications (placebo and milnacipran) were administered twice a day (BID).
(i) Primary Efficacy Assessments: Patient Global Impression of Change (PGIC) administered to patients at visits Tx3, Tx7, Tx11 and Tx15/ET; Physical Component summary of SF-36 (SF-36 PCS) administered to patients at visits BL2/Tx0, Tx3, Tx7, Tx11 and Tx15/ET; (ii) Secondary Efficacy Assessments: Time weighted average (AUC) of weekly average PED morning recall pain score; PGIC and SF-36 PCS administered to patients at visits Tx3 to Tx15.
(iii) Additional Efficacy Measurements: The Fibromyalgia Impact Questionnaire (FIQ) total score and physical function, Beck Depression Inventory (BDI), the MOS-Sleep Index Scale, the Arizona Sexual Experiences Scale (ASEX), Patient pain 24 hour and 7 day recall VAS, the SF-36 individual domains, Patient Global Disease Status, Patient Global Therapeutic Benefit, the Multiple Ability Self-report Questionnaire (MASQ, cognitive function), the Multidimensional Health Assessment Questionnaire (MDHAQ), Multidimensional Fatigue Inventory (MFI), and diary assessments including current pain (morning, random daily, and evening reports); overall pain past week (weekly report), overall fatigue in the last week (weekly report), and the extent that pain kept the patient from caring for themselves (weekly report).

## CCN(CC)C(=O)C1(c2ccccc2)CC1CN (racemic) [milnacipran, Z-2-aminomethyl-1-phenyl-N, N-diethylcyclopropanecarboxamide hydrochloride]
100 mg milnacipran
  MFI total score, Actual, Mean: 63.00
  MFI total score, Actual, Median: 64.0
  MFI total score, Change from baseline, Mean: −5.39
  MFI total score, Change from baseline, Median: −4.0
  MFI total score, Change from baseline, Difference from Placebo: −1.80
  MFI total score, Change from baseline, LS Mean (SE): −5.47 (0.792)
200 mg milnacipran
  MFI total score, Actual, Mean: 64.15
  MFI total score, Actual, Median: 65.0
  MFI total score, Change from baseline, Mean: −5.39
  MFI total score, Change from baseline, Median: −4.0
  MFI total score, Change from baseline, Difference from Placebo: −1.55
  MFI total score, Change from baseline, LS Mean (SE): −5.63 (0.787)
